Measured values taken from patent publication US20230114753A1, “USE OF A GROUP OF MARKERS FOR DIAGNOSING AND ADJUSTING TREATMENT OF PRIMARY BILIARY CHOLANGITIS, PHARMACEUTICAL COMPOSITION AND SOLID DOSAGE FORM FOR TREATING PRIMARY BILIARY CHOLANGITIS” (MILI HEALTHCARE TRADE DMCC, LIMITED LIABILITY COMPANY, priority 2020, published 2023).
Several values for one entry are separate records, joined by “and”; a condition that tells them apart may be missing. Identical values can stand only once. Like-named read-outs stand apart in the source and are kept apart here. Values belong to the compound of their own block, whether it stands above or below them.

Experiments:
[1] = Pharmacokinetics of obeticholic acid taken orally, in a monocomposition or with UDCA; assay type: in vivo
Method: A study of the pharmacokinetics of obeticholic acid in a monocom position and as part of a composition with ursodeoxycholic acid when taken orally was conducted.

patients with PBC = assay: Effectiveness of the PBC treatment using various regimens (positive response, Paris2 system, 12 months); assay type: in vivo, human; conditions: Paris2 criteria
Method: A double-blind clinical study on the effectiveness of the combined pharmaceutical composition comprising UDCA and OCA compared to UDCA was conducted.
To study the effectiveness, the tablet embodiments No. 15 and No. 16 were used.
A study on the effectiveness of the various treatment regimens for the patients with PBC was conducted. A total of three treatment regimens were used in the study: • 1) UDCA monocomposition at a dose of 15 mg/kg/day. • 2) Combined pharmaceutical composition in the pharmaceutical form with the modified release and at a dose of UDCA 15 mg/kg+OCA 5 mg per day. • 3) Combined pharmaceutical composition in the pharmaceutical form with the modified release and at a dose of UDCA 15 mg/kg+OCA 10 mg per day.
The studies were carried out for 12 months, during which the quality of the treatment was assessed by measuring biochemical and molecular biological markers (see above).
The evaluation of the effectiveness of the treatment was carried out on the basis of the Paris2 system, according to which the criteria for a satisfactory treatment are: • ALT level≤3-fold upper limit of normal (ULN); • AST level≤2-fold ULN; • normal bilirubin level.

[2] = tested on: patients diagnosed with PBC; assay: Double-blind clinical study: biochemical and molecular markers in blood of PBC patients treated with UDCA or UDCA+OCA; assay type: in vivo, human; conditions: blood plasma
Method: To determine the concentration level values of the markers in the blood serum, chemiluminescence and enzyme immunoassay methods were used.
A double-blind clinical study was conducted on the effectiveness of the combined pharmaceutical composition comprising UDCA and OCA compared with the monocomposition comprising only UDCA for the patients with the following concentration level values of the claimed group of the markers (corresponding to 1 Stage of PBC): • IL-6—at least 10%; • Nf-kB—at least 5%; • MCP-1/CCL2—at least 5%; • Bcl-2—at least 5%; • TNF-α—at least 12%; • MDA—at least 0.5%.
The patients diagnosed with PBC were divided into 3 groups depending on the treatment regimen:
2) Group UDCA 15 mg/kg+OCA 5 mg;
3) Group UDCA 15 mg/kg+OCA 10 mg.
After the treatment, venous blood samples were taken from the patients and the concentrations of biochemical and molecular markers were determined.
As markers of the treatment effectiveness, two groups of markers were used: biochemical and molecular biological.
The first group included: ALT, AST, GGT (Gamma-glutamyl Transferase), AP and total bilirubin.
The second group included: TNF-α, IL-6, Nf-kB, MCP-1/CCL2, BCL-2, and MDA.

[3] = month 6 of treatment, listed as UDCA 15 mg/kg
[4] = month 12 of treatment, listed as UDCA 15 mg/kg

AUC(0-t) ([1]; in vivo, po): 34.8 ng·h/mL | bioavailability ([1]; in vivo, po, read-out: Bioavailability): 89% | Cmax ([1]; in vivo, po, read-out: Cmax): 16.7 ng/mL | Tmax ([1]; listed as OCA 5 mg): 40 min | AUCt ([1]; listed as OCA 10 mg): 66.1 ng·h/mL | Cmax ([1]; listed as OCA 10 mg): 26.4 ng/mL | Tmax ([1]; listed as OCA 10 mg): 90 min | bioavailability ([1]; listed as OCA 10 mg): 91%
Structure (SMILES): CC[C@H]1[C@@H](O)[C@@H]2[C@H](CC[C@]3(C)[C@@H]([C@H](C)CCC(=O)O)CC[C@@H]23)[C@@]2(C)CC[C@@H](O)C[C@@H]12 [OCA, obeticholic acid]

Structure (SMILES): C[C@H](CCC(=O)O)[C@H]1CC[C@H]2[C@@H]3[C@@H](O)C[C@@H]4C[C@H](O)CC[C@]4(C)[C@H]3CC[C@]12C [UDCA, ursodeoxycholic acid]
Number of patients with positive response to treatment (%) (patients with PBC): 58.82% | Number of patients with positive response to treatment (number) (patients with PBC; groups of 68, 65, 63 patients): 40 | ALT ([2]; month 1 of treatment): 80.4 U/l | ALT, in % of the initial value ([2]; month 1 of treatment): 97.22% | AP ([2]; month 1 of treatment): 352.5 U/l | AP, in % of the initial value ([2]; month 1 of treatment): 97.20% | AST ([2]; month 1 of treatment): 100.7 U/l | AST, in % of the initial value ([2]; month 1 of treatment): 95.72% | Bcl-2 ([2]; month 1 of treatment): 0.68 U/ml | Bcl-2, in % of the initial value ([2]; month 1 of treatment): 94.44% | GGT ([2]; month 1 of treatment): 198 U/l | GGT, in % of the initial value ([2]; month 1 of treatment): 95.42% | IL-6 ([2]; month 1 of treatment): 23.35 pg/mL | IL-6, in % of the initial value ([2]; month 1 of treatment): 99.19% | MCP-1/CCL2 ([2]; month 1 of treatment): 465.4 pg/mL | MCP-1/CCL2, in % of the initial value ([2]; month 1 of treatment): 99.34% | MDA ([2]; month 1 of treatment): 22.87 nmol/mL | MDA, in % of the initial value ([2]; month 1 of treatment): 99.09% | Nf-kB ([2]; month 1 of treatment): 64.4 pg/mL | Nf-kB, in % of the initial value ([2]; month 1 of treatment): 98.32% | TNF-α ([2]; month 1 of treatment): 0.33 ng/mL | TNF-α, in % of the initial value ([2]; month 1 of treatment): 100.00% | Total bilirubin ([2]; month 1 of treatment): 39.8 µmol/L | Total bilirubin, in % of the initial value ([2]; month 1 of treatment): 96.18% | ALT ([2]; month 3 of treatment): 74.81 U/l | ALT, in % of the initial value ([2]; month 3 of treatment): 90.46% | AP ([2]; month 3 of treatment): 290.6 U/l | AP, in % of the initial value ([2]; month 3 of treatment): 88.10% | AST ([2]; month 3 of treatment): 87.3 U/l | AST, in % of the initial value ([2]; month 3 of treatment): 82.98% | Bcl-2 ([2]; month 3 of treatment): 0.62 U/ml | Bcl-2, in % of the initial value ([2]; month 3 of treatment): 86.11% | GGT ([2]; month 3 of treatment): 178.8 U/l | GGT, in % of the initial value ([2]; month 3 of treatment): 86.17% | IL-6 ([2]; month 3 of treatment): 22.95 pg/mL | IL-6, in % of the initial value ([2]; month 3 of treatment): 97.49% | MCP-1/CCL2 ([2]; month 3 of treatment): 448 pg/mL | MCP-1/CCL2, in % of the initial value ([2]; month 3 of treatment): 95.62% | MDA ([2]; month 3 of treatment): 22.54 nmol/mL | MDA, in % of the initial value ([2]; month 3 of treatment): 97.66% | Nf-kB ([2]; month 3 of treatment): 64.1 pg/mL | Nf-kB, in % of the initial value ([2]; month 3 of treatment): 97.86% | TNF-α ([2]; month 3 of treatment): 0.324 ng/mL | TNF-α, in % of the initial value ([2]; month 3 of treatment): 98.18% | Total bilirubin ([2]; month 3 of treatment): 33.8 µmol/L | Total bilirubin, in % of the initial value ([2]; month 3 of treatment): 87.50% | ALT, in % of the initial value [2, 3]: 67.32% and 82.47% | AP, in % of the initial value [2, 3]: 63.93% and 74.45% | AST, in % of the initial value [2, 3]: 67.24% and 77.38% | Bcl-2, in % of the initial value [2, 3]: 95.24% and 80.56% | GGT, in % of the initial value [2, 3]: 65.16% and 75.28% | IL-6, in % of the initial value [2, 3]: 85.81% and 93.46% | MCP-1/CCL2, in % of the initial value [2, 3]: 88.00% and 92.08% | MDA, in % of the initial value [2, 3]: 95.36% and 96.92% | Nf-kB, in % of the initial value [2, 3]: 91.91% and 95.88% | TNF-α, in % of the initial value [2, 3]: 87.88% and 95.45% | ALT ([2]; month 9 of treatment): 62.47 U/l | ALT, in % of the initial value ([2]; month 9 of treatment): 75.54% | AP ([2]; month 9 of treatment): 247.5 U/l | AP, in % of the initial value ([2]; month 9 of treatment): 69.18% | AST ([2]; month 9 of treatment): 74.5 U/l | AST, in % of the initial value ([2]; month 9 of treatment): 70.82% | Bcl-2 ([2]; month 9 of treatment): 0.54 U/ml | Bcl-2, in % of the initial value ([2]; month 9 of treatment): 75.00% | GGT ([2]; month 9 of treatment): 141.5 U/l | GGT, in % of the initial value ([2]; month 9 of treatment): 68.19% | IL-6 ([2]; month 9 of treatment): 21.48 pg/mL | IL-6, in % of the initial value ([2]; month 9 of treatment): 91.25% | MCP-1/CCL2 ([2]; month 9 of treatment): 419.7 pg/mL | MCP-1/CCL2, in % of the initial value ([2]; month 9 of treatment): 89.58% | MDA ([2]; month 9 of treatment): 22.12 nmol/mL | MDA, in % of the initial value ([2]; month 9 of treatment): 95.84% | Nf-kB ([2]; month 9 of treatment): 61.4 pg/mL | Nf-kB, in % of the initial value ([2]; month 9 of treatment): 93.74% | TNF-α ([2]; month 9 of treatment): 0.3 ng/mL | TNF-α, in % of the initial value ([2]; month 9 of treatment): 90.91% | Total bilirubin ([2]; month 9 of treatment): 28.03 µmol/L | Total bilirubin, in % of the initial value ([2]; month 9 of treatment): 70.49% | ALT ([2]; month 12 of treatment): 55.67 U/l | ALT, in % of the initial value ([2]; month 12 of treatment): 67.32% | AP ([2]; month 12 of treatment): 235.36 U/l | AP, in % of the initial value ([2]; month 12 of treatment): 63.93% | AST ([2]; month 12 of treatment): 70.73 U/l | Bcl-2 ([2]; month 12 of treatment): 0.52 U/ml | GGT ([2]; month 12 of treatment): 135.2 U/l | GGT, in % of the initial value ([2]; month 12 of treatment): 65.16% | IL-6 ([2]; month 12 of treatment): 20.2 pg/mL | IL-6, in % of the initial value ([2]; month 12 of treatment): 85.81% | MCP-1/CCL2 ([2]; month 12 of treatment): 412.3 pg/mL | MCP-1/CCL2, in % of the initial value ([2]; month 12 of treatment): 88.00% | MDA ([2]; month 12 of treatment): 22.01 nmol/mL | MDA, in % of the initial value ([2]; month 12 of treatment): 95.36% | Nf-kB ([2]; month 12 of treatment): 60.2 pg/mL | Nf-kB, in % of the initial value ([2]; month 12 of treatment): 91.91% | TNF-α ([2]; month 12 of treatment): 0.29 ng/mL | TNF-α, in % of the initial value ([2]; month 12 of treatment): 87.88% | Total bilirubin ([2]; month 12 of treatment): 26.03 µmol/L | Total bilirubin, in % of the initial value ([2]; month 12 of treatment): 64.58% | AST, in % of the initial value [2, 4]: 67.24% and 67.23% | Bcl-2, in % of the initial value [2, 4]: 72% and 72.22%
